Here are results for 1 molecule from US20170260169A1, “INHIBITORS FOR STEROID RESPONSE ELEMENTS AND RNA POLYMERASE II AND RELATED METHODS” (priority 2007, published 2017).

Molecules are shown by their SMILES.

Series [1] has as its system PSA mRNA expression in LNAR cells. The series can be described thus: PSA mRNA expression in LNAR cells (hormone refractory, over-express AR). It counts as cell-based.
From the text: The cell line LNAR was used, which has been engineered to over-express AR (14). LNAR cells over-express AR and form hormone refractory tumors when xenografted in mice (14).
A further series deals with RPB1 mRNA. Description: Quantitative RT-PCR of RPB1 transcript in LNCaP cells. The following applies: 10 μM. Format: cell-based. Here is the method: RNA was extracted using RNEasy columns (Qiagen) according to manufacturer's protocols. cDNA was generated from RNA by reverse transcriptase (Transcriptor First Strand cDNA kit, Roche). Quantitative real-time RT-PCR was performed using SYBR Green PCR Master Mix (Applied Biosystems) on an ABI 7300 instrument. mRNA was measured relative to B glucuronidase as an endogenous control.

The test system of series [2] is PSA protein secretion by LNCaP cells. Description: Secreted PSA protein by ELISA, LNCaP cells. Format: cell-based. As to conditions: after DHT stimulation, compared with 2 or untreated control. Here is the method:
LNCaP cells (ATCC) were plated in 24-well plates at a density of 40-50×10^3 cells per well (80-100×10^3 cells per ml) in RPMI medium 1640 (ATCC) supplemented with 10% FBS (Irvine Scientific, Santa Ana, Calif.). After 72 h, the medium was replaced with RPMI medium 1640 containing 10% charcoal stripped FBS with or without polyamides at the designated concentrations. Cells were grown for an additional 48 h and then treated with 1 nM DHT for 16 h. When appropriate, bicalutamide was added 2 h before DHT stimulation. Isolation of RNA and cDNA synthesis was performed as described (21). Quantitative real-time RT-PCR was performed with SYBR Green PCR Master Mix (Applied Biosystems, Foster City, Calif.) on an ABI 7300 instrument. PSA mRNA was measured relative to β-glucuronidase as an endogenous control. Primer sequences are available upon request. Cell-culture supernatants were collected for an ELISA (R & D Systems, Minneapolis, Minn.) to measure PSA protein according to the manufacturer's protocol.
On the technique in general: ELISA stands for enzyme-linked immunosorbent assay.

A further series deals with RNAP2 large subunit RPB1. Description: Immunoblot of RPB1 protein in LNCaP cells. Format: cell-based. As to the method: (§1) Samples for immunoblot analysis were prepared by plating LNCaP or DU145 cells at 1 million cells per 10 cm plate. Cells were allowed to adhere for 24-36 hr prior to incubation with compound. After the appropriate incubation time cells were washed once with ice cold PBS and harvested in ice cold 125 μL lysis buffer (50 mM Tris-HCl pH 7.4, 150 mM NaCl, 1 mM EDTA, 1% Triton X100) containing protease inhibitor cocktail (Roche), 1 mM PMSF (Sigma), and phosphatase inhibitors (Sigma). Samples were allowed incubate on ice for 10 min with vortexing once every 3 min. Cellular debris was pelleted by spinning at 14,000 rpm for 15 min to collect the supernatant. Samples were then quantified for protein content with the Bradford assay (Bio-rad) and boiled with 4× sample buffer (Li-Cor) for 5 min. Protein electrophoresis was performed in 4-20% precast Tris glycine SDS gels (Bio-rad) and transferred to PVDF membranes. Membrane blocking was done with Odyssey Blocking Buffer (Li-Cor). The following antibodies used to probe changes in protein levels or phosphorylation states: RBP1 (Santa Cruz Biotechnology, N20), p53 (Santa Cruz Biotechnology, DO1), phospho-Chk2-Thr68 (Cell Signaling Technology), Phospho-p53-Ser15 (Cell Signaling Technology), phosphor-H2A.X-Ser139 (Cell Signaling Technology), phosphor-ATM-Ser1981 (Abcam), phosphor-DNA-PKcs-Ser2056 (Abcam), and […] (Abcam). […]
For orientation: Immunoblotting shows a protein as a band on a membrane.

The subject of series [3] is DNA damage markers (γH2A.X, ATM, DNA-PKcs, p53, Chk2). The series can be described thus: Immunoblot of DNA damage markers, p53 and PARP in LNCaP cells. It counts as cell-based. As to the method:
as §1

For the next series, the system named is GILZ enhancer GRE1. The series can be described thus: Quantitative DNase I footprint titration on pKAM5 fragment, GRE1. It counts as binding. As to the method: Detailed experimental protocols are reported elsewhere (44). The GILZ enhancer contains two GREs separated by 22 base pairs (46). GRE 1 is 5'-[NT]=3' (SEQ ID NO:5) and GRE 2 is […] ID NO:7). The DNA binding of polyamides 1 and 2 on these sequences was measured by quantitative DNase I footprint. […] […]).

Series [4] relates to AR occupancy at the PSA promoter and enhancer. Description: Chromatin immunoprecipitation with anti-AR, PSA promoter and enhancer. Format: cell-based. As to the method:
LNCaP cells were plated in 15-cm diameter plates at a density of 2×10^6 cells per plate. Media, polyamide treatment, time course, and DHT stimulation were the same as described above. After the 16-h DHT treatment, cells were treated with 1% formaldehyde for 10 min. Chromatin was isolated and sheared. Antibodies to AR (AR-20, Santa Cruz Biotechnology, Santa Cruz, Calif.) were used to immunoprecipitate AR-bound DNA fragments. Crosslinks were reversed, and PCRs using primers targeted to the regions of interest were used to assess enrichment of bound fragments as compared with mock-precipitated (no antibody) controls. PCRs were monitored with SYBR Green PCR Master Mix (Applied Biosystems) on an ABI 7300 instrument. Primer sequences and a more detailed experimental protocol are available upon request.

The subject of series [5] is AR occupancy at the FKBP5 intronic enhancer. The series can be described thus: Chromatin immunoprecipitation with anti-AR, FKBP5 fifth intron enhancer. It counts as cell-based. The following applies: 10 μM.
The test system of series [6] is PSA mRNA expression in LNCaP cells. Description: DHT-induced PSA mRNA in LNCaP cells, quantitative real-time RT-PCR. It counts as cell-based. For orientation: Quantitative PCR measures a nucleic acid by following its amplification.

For `CN(CCCNC(=O)c1cccc(C(=O)O)c1)CCCNC(=O)c1cc(NC(=O)c2cc(NC(=O)c3cc(NC(=O)c4nc(NC(=O)[C@H](N)CCNC(=O)c5cc(NC(=O)c6cc(NC(=O)c7cc(NC(=O)c8nccn8C)cn7C)cn6C)cn5C)cn4C)cn3C)cn2C)cn1C` [Polyamide 1, ImPyPyPy-2-(R)H^2Nγ-ImPyPyPy-NHMe-IPA], the “effect on DHT-induced PSA mRNA expression in LNAR cells” value in [1] is recorded as “maintains efficacy”. Besides, the “expression of RPB1 mRNA” value in the series with RPB1 mRNA is on record as “modestly increased”. In [2], the “supernatant concentrations of PSA protein” value is given as “reduced”. Moreover, the RPB1 protein level result in the series with RNAP2 large subunit RPB1 is “depletion of RPB1 in a time- and concentration-dependent manner”. Further, in series [3], the “cellular markers of DNA damage (phosphorylation)” value is recorded as “did not induce cellular markers of DNA damage”; the “p53 accumulation and PARP cleavage” value was “modest accumulation of p53 and PARP cleavage were observed”. Moreover, in the series on GILZ enhancer GRE1, the Ka is given as 1.9±0.8×10^10. Also, the “occupancy of AR at the PSA promoter and enhancer” value in series [4] (1 μM as printed) was “decreased occupancy”. Further, the “AR occupancy at the PSA promoter and enhancer” value in series [4] (10 μM, FIG. 9 legend) is given as “decreased”. Also, the “occupancy of AR at the FKBP5 intronic enhancer” value in series [5] was “decreased occupancy”. Also, the “AR mRNA” value in series [6] is “minimally affected”. In addition, in series [6] (LNCaP, over the course of the experiment), the “effects on cell growth” value is listed as “no obvious detrimental effects on cell growth”.
